Entries after “also recorded” stand apart in the source; their conditions may differ.
What was measured:
[1] = tested on: primary human hepatocytes (PHH); experiment: Reduced glutathione; format: cell-based; details: 500 or 1000 μM, 3 h, 6 h, 12 h
CD1 male mice [2] = experiment: In vivo liver function tests and serum creatinine; parameters: species or system mouse; details: 600 mg/kg; for liver function tests (ALT, AST, ALP) in serum: serum after 12 h
CYP2D6 = CYP2D6 (Homo sapiens, UniProt P10635); experiment: Vivid CYP450 screening assay, CYP2D6; format: biochemical
Chain of CYP2D6 (P10635 whole entry): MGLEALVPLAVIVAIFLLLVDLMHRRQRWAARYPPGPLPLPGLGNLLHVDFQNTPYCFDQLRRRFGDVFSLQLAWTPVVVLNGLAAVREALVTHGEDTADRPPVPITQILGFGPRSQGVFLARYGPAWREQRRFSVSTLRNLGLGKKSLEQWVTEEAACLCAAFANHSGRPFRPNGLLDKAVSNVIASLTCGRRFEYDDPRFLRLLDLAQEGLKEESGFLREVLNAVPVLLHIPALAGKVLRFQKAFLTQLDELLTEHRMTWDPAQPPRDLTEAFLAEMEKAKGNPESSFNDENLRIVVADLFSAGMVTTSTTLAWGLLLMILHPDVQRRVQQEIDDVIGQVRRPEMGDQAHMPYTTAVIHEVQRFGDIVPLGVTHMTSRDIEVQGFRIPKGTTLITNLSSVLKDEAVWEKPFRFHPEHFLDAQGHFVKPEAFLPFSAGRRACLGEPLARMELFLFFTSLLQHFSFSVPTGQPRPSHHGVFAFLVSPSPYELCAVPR

CD1 mice = experiment: NAPQI detection in serum by LC-MS/MS; format: in vivo, mouse; details: 600 mg/kg, ip or po
CD1 male mice [3] = experiment: Liver histology and immunohistochemistry; format: in vivo, mouse; details: for H&E-stained liver sections / apoptotic nuclei (TUNEL) / hepatic tight junctions (ZO-1 staining): 600 mg/kg; for H&E-stained liver sections: CD1 mice
male Sprague-Dawley rats = experiment: Von Frey; format: in vivo, rat; details: baseline dropped to about 20 after CFA
HepaRG = details: HepaRG, 50, 100, 1000 and 5000 μM, 6 h, 12 h, 24 h
CYP3A4 = CYP3A4 (Homo sapiens, UniProt P08684); details: titration curves for 2D6 and 3A4; isozyme not given
Chain of CYP3A4 (P08684 whole entry): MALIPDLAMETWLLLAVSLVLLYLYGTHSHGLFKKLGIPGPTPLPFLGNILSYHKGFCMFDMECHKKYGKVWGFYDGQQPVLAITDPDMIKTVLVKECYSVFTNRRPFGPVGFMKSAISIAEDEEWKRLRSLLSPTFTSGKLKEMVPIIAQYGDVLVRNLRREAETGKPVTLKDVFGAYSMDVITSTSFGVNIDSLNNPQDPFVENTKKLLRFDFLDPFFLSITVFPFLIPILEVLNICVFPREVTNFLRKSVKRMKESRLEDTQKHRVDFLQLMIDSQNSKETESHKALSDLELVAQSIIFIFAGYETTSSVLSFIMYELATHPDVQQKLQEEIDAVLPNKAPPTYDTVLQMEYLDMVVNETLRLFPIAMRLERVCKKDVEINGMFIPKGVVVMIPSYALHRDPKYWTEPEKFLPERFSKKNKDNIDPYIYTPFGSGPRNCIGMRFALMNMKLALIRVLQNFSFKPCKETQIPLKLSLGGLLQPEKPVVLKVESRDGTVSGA

male CD1 mice [4] = details: 600 mg/kg, n = 20 mice per group
[5] = tested on: primary human hepatocytes (PHH); experiment: LDH release in primary human hepatocytes; details: 500 or 1000 μM, 3 h, 6 h, 12 h, in comparison to ApAP
[6] = cited from earlier work
male CD1 mice [7] = experiment: Baker's yeast-induced hyperthermia; format: in vivo, mouse; details: 80 mg/kg po, n = 10, 2 h after drug (6-h time point)

In the case of O=C(CNS(=O)(=O)c1ccccc1C(=O)NCCc1ccc(O)c(O)c1)Nc1ccc(O)cc1 [3r, N-[2-(3,4-dihydroxyphenil)ethyl]-2-[[2-(4-hydroxyanilino)-2-oxo-ethyl]sulfamoyl] benzamide], the “amount of reduced GSH” value [1] is reported as “consistently increased”, the “liver function tests (ALT, AST, ALP) in serum” value (“liver function tests” below) (CD1 male mice [2]) is reported as “marked reduction in LFTs” and the “inhibitory effects on CYP2D6” value (CYP2D6) is reported as “only marginal inhibitory effects”. The “NAPQI generation in serum” value (CD1 mice) was “did not result in the formation of NAPQI”, the “H&E-stained liver sections” value (CD1 male mice [3]) was “healthy liver architecture was maintained” and the “apoptotic nuclei (TUNEL)” value (CD1 male mice [3]; mice) was “but not in 3b and 3r”. The “hepatic tight junctions (ZO-1 staining)” value (CD1 male mice [3]; mice) was “preserved”, the “latency for withdrawal of the CFA-injected left hind foot” value (from here on “latency for withdrawal”) (male Sprague-Dawley rats) was “increased” and the “hepatotoxicity (LDH release, reduced GSH), dose and time-dependent effect” value (HepaRG) was “lack of hepatotoxicity”. The “concentrations at which inhibition is noted” value (CYP3A4) was greater than 1000 nM, the “mice alive after 48 h” value (male CD1 mice [4]) was 20 mice and the LDH release [5] was “consistently decreased”.

In the case of O=C(CN1C(=O)c2ccccc2S1(=O)=O)Nc1ccc(O)cc1 [compound 1, N-(4-hydroxyphenyl)-2-(1,1,3-trioxo-1,2-benzothiazol-2-yl)acetamide], the hepatotoxicity ([6]; compared with ApAP) is given as “considerably decreased”, the “in vivo analgesic profile” value ([6]; compared with ApAP) is given as “maintained the in vivo analgesic profile of ApAP” and the in vivo metabolism ([6]; into the main metabolite 2) is given as “quickly metabolized in vivo”. The antipyresis ([6]; stated in abstract, no reference given) was “not antipyretic”.

In the case of CNC(=O)c1ccccc1S(=O)(=O)NCC(=O)Nc1ccc(O)cc1 [3b, 2-[[2-(4-Hydroxyanilino)-2-oxo-ethyl]sulfamoyl]-N-methylbenzamide], the “amount of reduced GSH” value [1] is reported as “consistently increased”, the “liver function tests” value (CD1 male mice [2]) is reported as “marked reduction in LFTs” and the “NAPQI generation in serum” value (CD1 mice) is reported as “did not result in the formation of NAPQI”. For the same compound, the “H&E-stained liver sections” value (CD1 male mice [3]) was “healthy liver architecture was maintained”, the “apoptotic nuclei (TUNEL)” value (CD1 male mice [3]; mice) was “but not in 3b and 3r” and the “hepatic tight junctions (ZO-1 staining)” value (CD1 male mice [3]; mice) was “preserved”. For the same compound, the “latency for withdrawal” value (male Sprague-Dawley rats) was “increased”, the “hepatotoxicity (LDH release, reduced GSH), dose and time-dependent effect” value (HepaRG) was “lack of hepatotoxicity” and the “mice alive after 48 h” value (male CD1 mice [4]) was 20 mice. For the same compound, the LDH release [5] was “consistently decreased”.

With CC(=O)Nc1ccc(O)cc1 [ApAP, N-Acetyl-4-aminophenol, reference compound] the “serum creatinine (renal function)” value (CD1 male mice [2]) was “moderately elevated; also recorded: significantly high”, the “liver function tests” value (CD1 male mice [2]) was “Increased levels; also recorded: significantly high” and the “NAPQI generation in serum” value (CD1 mice) was “detected NAPQI generation”. For the same compound, the “H&E-stained liver sections” value (CD1 male mice [3]) was “centrilobular hepatic hemorrhagic necrosis”, the “apoptotic nuclei (TUNEL)” value (CD1 male mice [3]; mice) was “A large number of apoptotic nuclei” and the “hepatic tight junctions (ZO-1 staining)” value (CD1 male mice [3]; mice) was “Loss of hepatic tight junctions”. For the same compound, the “nitrotyrosine in liver (marker of mitochondrial free radical formation)” value (CD1 male mice [3]; toxic dose, mice) was “large amounts of nitrotyrosine”, the “latency for withdrawal” value (male Sprague-Dawley rats) was “increased” and the antipyretic effect (male CD1 mice [7]) was “effectively reduced fever”.

— publication PMC7324353 (European Journal of Medicinal Chemistry, 2020)
